The text below walks through data of ChEMBL document CHEMBL1201862, “PubChem BioAssay data set” (2004).

Activity calls are given as the source filed them.

Assay [1] concerns the target T1, RNA-binding protein pos-1 (Caenorhabditis elegans, UniProt G5EF15).
T1 sequence (G5EF15 whole entry): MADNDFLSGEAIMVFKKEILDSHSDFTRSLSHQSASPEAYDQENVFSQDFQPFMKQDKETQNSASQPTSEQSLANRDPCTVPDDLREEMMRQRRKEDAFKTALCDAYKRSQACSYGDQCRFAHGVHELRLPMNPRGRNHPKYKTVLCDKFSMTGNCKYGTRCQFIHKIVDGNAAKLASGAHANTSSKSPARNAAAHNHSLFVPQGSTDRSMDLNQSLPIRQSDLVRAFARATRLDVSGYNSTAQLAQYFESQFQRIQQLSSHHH
In words: disruptors of C. elegans POS-1 RNA interaction – biochemical, fluorescence polarization, dose response (AID 1964).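 Also: purified POS-1 fused to maltose binding protein made in E. coli; potency of compounds blocking POS-1 binding to fluorescent RNA.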 For orientation: Polarisation of emitted light reports the rotation of a fluorescent probe.

Another assay deals with BJ. Description: cells. The following applies: Homo sapiens. It counts as functional, cell-based.
A short description of assay [2]: DRD fibroblast viability loss – cell-based, non-viral oncogenic, luminescence, dose response (AID 1934). It counts as functional. The following applies: Homo sapiens.
Assay [3] deals with T2, Short transient receptor potential channel 4 (Mus musculus, UniProt Q9QUQ5).
T2 sequence (Q9QUQ5 whole entry): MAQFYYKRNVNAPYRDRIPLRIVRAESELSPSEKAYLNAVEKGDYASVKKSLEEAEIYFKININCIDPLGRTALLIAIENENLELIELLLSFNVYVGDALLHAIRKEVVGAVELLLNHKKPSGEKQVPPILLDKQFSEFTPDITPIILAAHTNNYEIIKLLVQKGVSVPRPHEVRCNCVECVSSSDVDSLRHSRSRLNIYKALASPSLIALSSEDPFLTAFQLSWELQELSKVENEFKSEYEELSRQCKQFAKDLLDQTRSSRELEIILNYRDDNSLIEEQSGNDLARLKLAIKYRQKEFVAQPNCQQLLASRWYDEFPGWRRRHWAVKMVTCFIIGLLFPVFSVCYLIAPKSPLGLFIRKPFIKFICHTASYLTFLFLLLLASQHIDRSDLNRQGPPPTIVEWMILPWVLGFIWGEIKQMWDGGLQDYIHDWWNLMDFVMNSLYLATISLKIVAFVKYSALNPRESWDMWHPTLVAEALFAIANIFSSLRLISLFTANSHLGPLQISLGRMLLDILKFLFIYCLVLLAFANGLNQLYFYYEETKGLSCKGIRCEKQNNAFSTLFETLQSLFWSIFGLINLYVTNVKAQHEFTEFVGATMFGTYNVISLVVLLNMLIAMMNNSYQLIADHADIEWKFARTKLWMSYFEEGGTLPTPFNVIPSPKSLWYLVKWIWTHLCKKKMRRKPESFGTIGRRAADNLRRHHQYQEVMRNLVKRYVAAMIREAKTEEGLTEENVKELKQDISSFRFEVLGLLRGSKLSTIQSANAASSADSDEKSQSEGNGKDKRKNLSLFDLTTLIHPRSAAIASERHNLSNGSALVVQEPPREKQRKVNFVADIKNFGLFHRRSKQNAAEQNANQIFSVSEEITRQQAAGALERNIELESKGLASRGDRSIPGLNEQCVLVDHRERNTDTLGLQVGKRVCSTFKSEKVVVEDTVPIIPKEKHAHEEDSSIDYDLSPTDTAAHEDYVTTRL
Description: calcium entry via TRPC4 opening agents – cell-based, HEK293 TRPC4/mu-opioid, Fluo-4 calcium, dose response (AID 434937). It counts as functional.

Assay [4] deals with T3, Glutathione-S-transferase (Schistosoma japonicum, UniProt Q26513).
T3 sequence (Q26513 whole entry): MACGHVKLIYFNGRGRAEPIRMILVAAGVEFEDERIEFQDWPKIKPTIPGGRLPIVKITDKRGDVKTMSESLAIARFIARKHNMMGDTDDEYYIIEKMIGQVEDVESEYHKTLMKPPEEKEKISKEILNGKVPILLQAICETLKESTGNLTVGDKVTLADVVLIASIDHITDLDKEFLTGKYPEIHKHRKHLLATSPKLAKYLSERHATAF
Description: GST-antibody interaction or FRET quenching – biochemical, TR-FRET, artefact control for Vif-APOBEC3G degradation inhibitor project, dose response (AID 1117362). Format: functional.

The target of assay [5] is T4, Tyrosine-protein phosphatase non-receptor type 11 (Homo sapiens, UniProt Q06124).
T4 sequence (Q06124 whole entry): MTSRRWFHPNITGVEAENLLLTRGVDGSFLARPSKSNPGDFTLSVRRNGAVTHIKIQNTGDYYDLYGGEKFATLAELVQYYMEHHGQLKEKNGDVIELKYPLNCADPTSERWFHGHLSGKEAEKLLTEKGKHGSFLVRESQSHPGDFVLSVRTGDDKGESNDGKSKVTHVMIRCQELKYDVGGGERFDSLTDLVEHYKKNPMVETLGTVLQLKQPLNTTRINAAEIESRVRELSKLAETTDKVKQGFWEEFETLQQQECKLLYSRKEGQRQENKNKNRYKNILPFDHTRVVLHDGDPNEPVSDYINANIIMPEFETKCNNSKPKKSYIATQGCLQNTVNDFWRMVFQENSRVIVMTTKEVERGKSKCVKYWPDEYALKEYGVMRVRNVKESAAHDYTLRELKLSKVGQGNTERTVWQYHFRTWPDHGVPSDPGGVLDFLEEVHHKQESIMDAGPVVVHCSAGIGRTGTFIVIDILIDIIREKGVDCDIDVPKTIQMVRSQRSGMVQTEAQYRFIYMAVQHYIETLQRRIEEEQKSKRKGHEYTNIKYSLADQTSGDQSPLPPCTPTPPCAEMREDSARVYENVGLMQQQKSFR
Description: PTPN11 enzyme inhibitors – biochemical, selectivity assay for STEP inhibitor project, dose response (AID 602367). It counts as functional. The following applies: read-out: IC50_Mean.

A word on the EC50: it is the concentration that produces a half-maximal response. On to `Nc1ccc2nc3c(O)nc(S)nc3nc2c1`, for which the EC50 in assay [1] was 7.85 µM (inconclusive).
Take `CCN1/C(=C/c2ccc3cc(C)ccc3[n+]2CC)Sc2cc(C)c(C)cc21`: the EC50 is 2.34 µM (active) in the assay with BJ, 1.43 µM (active) in assay [2] and 11.9 µM (active) in assay [3].
Turning to `COc1cc(NCCCNC(C)C)c2nccc(C)c2c1`, in assay [4], the IC50 was 28.7 µM (active).
Take `CSc1ccc(C=NNc2ccc(S(=O)(=O)Nc3ccccc3C(=O)O)cc2[N+](=O)[O-])cc1`: the IC50 in assay [5] was 1.11 µM (active).
